In patent US20250212876A1, “METHOD FOR CONTROLLING PLANT DISEASES” (SUMITOMO CHEMICAL COMPANY, LIMITED, priority 2022, published 2025):

Assays:
Assay type in all cases: cell-based
[1] = test system: Peach scab fungus (Cladosporium carpophilum); experiment: Test Example 5: control test against peach scab fungus, titer plate growth; settings: 150 ppm in DMSO, 1 μL + 150 μL PDB broth; 18° C., 5 days; absorbance at 550 nm
Description: (§1) The untreated groups in the Test Example 3, the Test Example 5 and the Test Example 6 represents a treated group in which the procedures are carried out under the same conditions as those described in each of Test Examples except that DMSO is dispensed in place of a diluted DMSO solution containing the Present compound. The untreated groups in the Test Example 7 and the Test Example 15 represents a test in which the procedures are carried out under the same conditions as those described in each of the Test Examples except that DMSO is dispensed in place of a diluted DMSO solution containing the present compound. […]
(§2) The present compound 77 was diluted with DMSO so as to contain 150 ppm, and 1 μL of the dilution solutions were dispensed into titer plate (96 well), and thereafter, thereto was then dispensed 150 μL of a potato dextrose broth (PDB broth) to which conidia of Cladosporium carpophilum were inoculated in advance. This plate was cultured at 18° C. for 5 days, thereby allowing Cladosporium carpophilum to undergo proliferation, and the absorbance at 550 nm of each well of the titer plate was then measured to determine a degree of growth of the Cladosporium carpophilum.

[2] = test system: Barley scald fungus (Rhynchosporium secalis); experiment: Test Example 3: control test against barley scald fungus, titer plate growth; settings: 150 ppm in DMSO, 1 μL + 150 μL PDB broth; 18° C., 7 days; absorbance at 550 nm
Description: as §1
as §2, with “of Rhynchosporium secalis” for “of Cladosporium carpophilum”, “for 7” for “for 5”, “allowing Rhynchosporium secalis” for “allowing Cladosporium carpophilum”, “the Rhynchosporium secalis.” for “the Cladosporium carpophilum.”

[3] = test system: Rice brown spot fungus (Cochliobolus miyabeanus); experiment: Test Example 6: control test against rice brown spot fungus, titer plate growth; settings: 150 ppm in DMSO, 1 μL + 150 μL YB liquid medium; 23° C., 3 days; absorbance at 550 nm
Description: The untreated groups in the Test Example 3, the Test Example 5 and the Test Example 6 represents a treated group in which the procedures are carried out under the same conditions as those described in each of Test Examples except that DMSO is dispensed in place of a diluted DMSO solution containing the Present compound. The untreated groups in the Test Example 7 and the Test Example 15 represents a test in which the procedures are carried out under the same conditions as those described in each of the Test Examples except that DMSO is dispensed in place of a diluted DMSO solution containing the present compound. Also, the untreated groups in the Test Example 8, the Test Example 9, the Test Example 10 and the Test Example 11 represents a test in which a diluted aqueous solution of the formulation containing the present compound isn't sprayed.
The present compound 77 was diluted with DMSO so as to contain 150 ppm, and 1 μL of the dilution solutions were dispensed into titer plate (96 well), and thereafter, thereto was then dispensed 150 μL of YB liquid medium to which conidia of Cochliobolus miyabeanus were inoculated in advance. This plate was cultured at 23° C. for 3 days, thereby allowing Cochliobolus miyabeanus to undergo proliferation, and the absorbance at 550 nm of each well of the titer plate was then measured to determine a degree of growth of the Cochliobolus miyabeanus.

Measured: growth in the treated well compared to the growth in an untreated well

O=S(=O)(c1cccc(-c2cc(F)c(Cl)c(F)c2)c1)c1ccncn1 [compound 77]
≤ 50%: all assays above
